Assay results reported in ChEMBL document CHEMBL4266036, “Hoshinoamides A and B, Acyclic Lipopeptides from the Marine Cyanobacterium Caldora penicillata” (J Nat Prod, 2018).

How the values were obtained:
[1] = test system: Plasmodium falciparum; test: Antiplasmodial activity against Plasmodium falciparum 3D7 […] after 72 hrs by NBT dye based LDH assay; format: functional, organism-based; details: 3D7, 72 h
[2] = test system: HeLa; test: Cytotoxicity against human HeLa cells after 72 hrs by MTT assay; format: cell-based

In the case of `CC[C@H](C)[C@H](NC(=O)[C@H](CC(C)C)N(C)C(=O)CCCCCNC(=O)CCCc1ccc(O)cc1)C(=O)N(C)[C@@H](C(=O)N[C@@H](CCC(N)=O)C(=O)N[C@H](C(=O)N(C)[C@H](Cc1ccccc1)C(=O)N1CCC[C@H]1C(=O)OC)C(C)C)C(C)C`, the IC50 [1] is reported as 0.52 µM and the IC50 [2] is reported as 14 µM.

Molecule `CC[C@H](C)[C@H](NC(=O)[C@H](CC(C)C)N(C)C(=O)CCCCCCCCNC(=O)CCCc1ccc(O)cc1)C(=O)N(C)[C@@H](C(=O)N[C@@H](CCC(N)=O)C(=O)N1CCC[C@H]1C(=O)N(C)[C@@H](Cc1ccccc1)C(=O)N1CCC[C@H]1C(=O)OC)C(C)C` has an IC50 [1] of 1 µM and an IC50 [2] of 29 µM.
